These results are taken from ChEMBL document CHEMBL3779781, “New direct inhibitors of InhA with antimycobacterial activity based on a tetrahydropyran scaffold” (Eur J Med Chem, 2016).

Values after ≈ are worked out from the molar mass of the structure shown.

The nature of series [1]: Inhibition of Mycobacterium tuberculosis InhA using 2-trans-decenoyl-CoA as substrate by fluorimetric analysis in presence of NADH.
The nature of series [2]: Kinetic solubility of compound in DMSO/phosphate buffered saline at pH7.4 by chemiluminescent nitrogen detection method. To be noted: pH 7.4, read-out: Kinetic_solubility. It is filed as physicochemical.
For series [3], the system named is Mycobacterium tuberculosis. Description: Antimycobacterial activity against Mycobacterium tuberculosis H37Rv ATCC 25618 after 2 weeks. It is filed as functional. To be noted: H37Rv ATCC 25618, 336 h.
Series [4] is described as follows: Cytotoxicity against human HepG2 cells by ATP bioluminescence assay. It is filed as cell-based. To be noted: read-out: TD50 (the source's name).
In series [5] the test system is Streptococcus pyogenes. Put plainly: Antibacterial activity against Streptococcus pyogenes 1308007P by broth microdilution assay. It is filed as functional. For orientation: Dilution methods test growth across graded concentrations, often in twofold steps.
Series [6] has as its system Staphylococcus aureus. Put plainly: Antibacterial activity against Staphylococcus aureus Oxford by broth microdilution assay. It is filed as functional.
The test system of series [7] is Streptococcus pneumoniae. Put plainly: Antibacterial activity against Streptococcus pneumoniae N1387 by broth microdilution assay. It is filed as functional.
Another series relates to Escherichia coli. Description: Antibacterial activity against Escherichia coli 3 by broth microdilution assay. It is filed as functional.
The test system of a further series is Enterococcus faecium. Description: Antibacterial activity against Enterococcus faecium X7501 by broth microdilution assay. It is filed as functional.
Series [8] concerns Mycobacterium tuberculosis. Put plainly: Antimycobacterial activity against Mycobacterium tuberculosis H37Rv. It is filed as functional.
A short description of series [9]: Selectivity index, ratio of TD50 for human HepG2 cells to MIC for Mycobacterium tuberculosis H37Rv ATCC 25618. It is filed as toxicity, cell-based. The note with it: read-out: Selectivity Index.
Series [10] relates to Mycobacterium tuberculosis. Put plainly: Antimycobacterial activity against Mycobacterium tuberculosis H37Rv ATCC 25618 infected in human THP1 cells assessed as reduction in cell viability after 5 days by luciferase reporter gene assay. It is filed as functional. To be noted: H37Rv ATCC 25618, THP-1, 120 h. (In general: Reporter assays use an easily measured gene product as a stand-in for the process of interest.)

Series [11] concerns Haemophilus influenzae. Description: Antibacterial activity against Haemophilus influenzae H128 with Acr A- genotype by broth microdilution assay. It is filed as functional.
The subject of series [12] is Streptococcus pneumoniae. Description: Antibacterial activity against Streptococcus pneumoniae ERY2 by broth microdilution assay. It is filed as functional.
Series [13] has as its system Haemophilus influenzae. Put plainly: Antibacterial activity against Haemophilus influenzae Q1 by broth microdilution assay. It is filed as functional.
The subject of another series is Moraxella catarrhalis. Put plainly: Antibacterial activity against Moraxella catarrhalis 1502 by broth microdilution assay. It is filed as functional.
Series [14] deals with Staphylococcus aureus. Description: Antibacterial activity against Staphylococcus aureus WCUH29 by broth microdilution assay. It is filed as functional.
Series [15] relates to Mycobacterium tuberculosis. Put plainly: Antimycobacterial activity against Mycobacterium tuberculosis H37Rv by broth microdilution assay. It is filed as functional.
For series [16], the system named is Streptococcus pneumoniae. Put plainly: Antibacterial activity against Streptococcus pneumoniae 1629 by broth microdilution assay. It is filed as functional.
Series [17] has as its target Voltage-gated inwardly rectifying potassium channel KCNH2 (Homo sapiens, UniProt Q12809). Put plainly: Inhibition of human ERG by QPatch assay. A general note: In patch-clamp work, channel activity is measured electrically.
The test system of a further series is Enterococcus faecalis. Description: Antibacterial activity against Enterococcus faecalis 1 by broth microdilution assay. It is filed as functional.
For series [18], the system named is Streptococcus pyogenes. Put plainly: Antibacterial activity against Streptococcus pyogenes 1307006P by broth microdilution assay. It is filed as functional.
Series [19] has as its system Staphylococcus aureus. Description: Antibacterial activity against Staphylococcus aureus WCUH29 fmt by broth microdilution assay. It is filed as functional.
Series [20] deals with Haemophilus influenzae. Description: Antibacterial activity against Haemophilus influenzae H128 by broth microdilution assay. It is filed as functional.

Sequence of Voltage-gated inwardly rectifying potassium channel KCNH2 (Q12809 whole entry): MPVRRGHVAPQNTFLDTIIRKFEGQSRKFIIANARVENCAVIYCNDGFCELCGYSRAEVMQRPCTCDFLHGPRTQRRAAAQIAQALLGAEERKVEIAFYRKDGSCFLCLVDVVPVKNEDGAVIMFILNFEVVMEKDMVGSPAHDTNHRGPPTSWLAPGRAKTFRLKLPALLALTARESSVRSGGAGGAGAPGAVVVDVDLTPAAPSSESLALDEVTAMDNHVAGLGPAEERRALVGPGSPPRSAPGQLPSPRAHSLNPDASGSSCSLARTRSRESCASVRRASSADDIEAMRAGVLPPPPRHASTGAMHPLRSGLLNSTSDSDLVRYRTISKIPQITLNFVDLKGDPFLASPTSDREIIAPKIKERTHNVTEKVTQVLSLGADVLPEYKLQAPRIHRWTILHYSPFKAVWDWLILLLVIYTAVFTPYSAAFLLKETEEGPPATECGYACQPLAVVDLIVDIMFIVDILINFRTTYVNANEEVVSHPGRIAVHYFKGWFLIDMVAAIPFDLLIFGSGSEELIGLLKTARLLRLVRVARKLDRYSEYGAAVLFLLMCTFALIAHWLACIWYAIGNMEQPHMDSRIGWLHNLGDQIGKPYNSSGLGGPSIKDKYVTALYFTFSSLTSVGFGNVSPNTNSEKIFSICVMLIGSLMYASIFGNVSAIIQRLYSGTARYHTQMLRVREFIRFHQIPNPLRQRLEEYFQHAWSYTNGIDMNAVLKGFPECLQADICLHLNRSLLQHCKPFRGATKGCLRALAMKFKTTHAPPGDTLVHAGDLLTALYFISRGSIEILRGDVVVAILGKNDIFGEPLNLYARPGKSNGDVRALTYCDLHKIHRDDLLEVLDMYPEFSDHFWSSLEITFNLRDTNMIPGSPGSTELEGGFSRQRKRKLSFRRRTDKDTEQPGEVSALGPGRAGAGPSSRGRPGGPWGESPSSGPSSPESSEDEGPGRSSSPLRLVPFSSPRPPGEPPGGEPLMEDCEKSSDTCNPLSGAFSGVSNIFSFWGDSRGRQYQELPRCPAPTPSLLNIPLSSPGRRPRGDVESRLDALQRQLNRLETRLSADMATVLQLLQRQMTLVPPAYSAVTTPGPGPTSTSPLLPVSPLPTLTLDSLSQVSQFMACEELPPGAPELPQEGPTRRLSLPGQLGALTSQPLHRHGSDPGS

Consider `Cc1cc(C)n(Cc2ccc(C(=O)NCC3(c4ccc5c(c4)OCO5)CCOCC3)cc2)n1`, for which the concentration for half-maximal inhibition (IC50) in [1] was 7.94 µM. For the same molecule, the solubility kinetic in series [2] is at least 478 µM. 125 µM (≈ 55.9 µg/mL) was the least that counted as inhibitory in [3] (MIC). Besides, in [4], the CC50 was over 100 µM.
`Cc1cnc(Nc2ccc(C(=O)NCC3(c4nc(-c5ccccc5)cs4)CCOCC3)cc2)s1`: the IC50 in series [1] is over 10 µM. For the same molecule, the solubility kinetic in series [2] was under 1 µM. Further, in [3], the MIC was over 80 µM. In addition, the CC50 in series [4] is over 100 µM.
The matching figures for `O=C(NCC1(c2nc(-c3ccccc3)cs2)CCOCC1)c1ccc(CN2CCCCC2)cc1`: over 1 µM, at least 396 µM, over 125 µM and 79.4 µM.
On to `O=C(NCC1(c2nc(-c3ccccc3)cs2)CCOCC1)c1ccc(-c2cnco2)cc1`, for which the half-inhibitory concentration (IC50) in [1] is over 1 µM. The solubility kinetic in series [2] was 71 µM (≈ 31.6 µg/mL). The molecule further yielded an MIC in series [3] of 125 µM (≈ 55.7 µg/mL). Moreover, the CC50 in series [4] came out at 79.4 µM.
Regarding `Cc1cc(C)n(-c2ccc(C(=O)NCC3(c4nc(-c5ccccc5)cs4)CCOCC3)cc2)n1`, the IC50 in series [1] was over 100 µM. For the same molecule, in series [2], the solubility kinetic was found to be 33 µM (≈ 15.6 µg/mL). In series [3], this molecule showed an MIC of 80 µM (≈ 37.8 µg/mL). The CC50 in series [4] amounted to 87.1 µM.
The matching figures for `COc1ccc(C2(CNC(=O)c3ccc(Cn4nc(C)cc4C)cc3)CCOCC2)cc1`: 6.38 µM, at least 458 µM, over 125 µM and over 100 µM.
Take `Cc1cc(C)n(Cc2ccc(C(=O)NCC3(c4nc(-c5ccccc5)cs4)CCOCC3)cc2)n1`: the MIC80 with Streptococcus pyogenes [5], against Staphylococcus aureus [6], in the series with Streptococcus pneumoniae [7], in the series on Escherichia coli, against Enterococcus faecium and with Haemophilus influenzae [11] was over 64 µg/mL in each case. The MIC80 in the series on Streptococcus pneumoniae [12] was over 64 µg/mL; against Haemophilus influenzae [13], over 64 µg/mL; in the series on Moraxella catarrhalis it was 32 µg/mL (≈ 65.8 µM); against Staphylococcus aureus [14], over 64 µg/mL; in series [15], 5.7 µg/mL (≈ 11.7 µM); in the series on Streptococcus pneumoniae [16], over 64 µg/mL. Moreover, the MIC80 in the series on Enterococcus faecalis, with Streptococcus pyogenes [18], with Staphylococcus aureus [19] and in the series on Haemophilus influenzae [20] was over 64 µg/mL in each case. Besides, the IC50 in series [1] stood at 0.02 µM; in series [17] it was 44.9 µM. Moreover, the minimum inhibitory concentration (MIC) in [8] is 7.8 µM; in [3], 11.7 µM (≈ 5.69 µg/mL). Besides, the selectivity ratio in series [9] amounted to 8.5. Besides, the solubility kinetic in series [2] was found to be 115 µM (≈ 56 µg/mL). Moreover, the 90% effect concentration (IC90) in series [10] came out at 3.98 µM. The CC50 in [4] is 100 µM.
Take `Cn1ccc(Nc2ccc(C(=O)NCC3(c4nc(-c5ccccc5)cs4)CCOCC3)cc2)n1`: the IC50 in [1] was found to be 5.56 µM. Besides, in series [2], the solubility kinetic was determined as 48 µM (≈ 22.7 µg/mL). In [3], this molecule showed an MIC of over 125 µM. The CC50 in [4] was determined as 79.4 µM.
On to `O=C(NCC1(c2nc(-c3ccccc3)cs2)CCOCC1)c1ccc(-n2ccnc2)cc1`, for which, in [1], the IC50 is over 1 µM. For the same molecule, the solubility kinetic in series [2] was 193 µM (≈ 85.8 µg/mL). The MIC in [3] was over 125 µM. Besides, the CC50 in series [4] is over 100 µM.
Regarding `O=C(NCC1(c2nc(-c3ccccc3)cs2)CCOCC1)c1ccc(-n2cncn2)cc1`, the 50% inhibitory concentration (IC50) in [1] is over 10 µM. Also, in [2], the solubility kinetic was determined as 191 µM (≈ 85.1 µg/mL). The molecule further had an MIC in series [3] of 125 µM (≈ 55.7 µg/mL). For the same molecule, the CC50 in [4] was over 100 µM.
Turning to `O=C(NCC1(c2nc(-c3ccccc3)cs2)CCOCC1)c1ccc(Nc2nncs2)cc1`, the IC50 in [1] was over 10 µM. Besides, the solubility kinetic in series [2] came out at 29 µM (≈ 13.9 µg/mL). In [3], this molecule came in with a minimum inhibitory concentration (MIC) of over 125 µM. Also, the CC50 in series [4] was determined as 63.1 µM.
The matching figures for `O=C(NCC1(c2nc(-c3ccccc3)cs2)CCOCC1)c1ccc(Nc2ccccn2)cc1`: over 10 µM, 12 µM (≈ 5.65 µg/mL), over 80 µM and 63.1 µM.
With `Cn1c(Nc2ccc(C(=O)NCC3(c4nc(-c5ccccc5)cs4)CCOCC3)cc2)nc2ccccc21`, the half-inhibitory concentration (IC50) in [1] is over 10 µM. Besides, in series [2], the solubility kinetic is 10 µM (≈ 5.24 µg/mL). The molecule also gave a minimum inhibitory concentration (MIC) in [3] of 94 µM (≈ 49.2 µg/mL). For the same molecule, the CC50 in series [4] amounted to 20 µM.
The matching figures for `O=C(NCC1(c2nc(-c3ccccc3)cs2)CCOCC1)c1ccc(Nc2nc3ccccc3s2)cc1`: over 10 µM, 4 µM (≈ 2.11 µg/mL), over 125 µM and 12.6 µM.
As for `O=C(NCC1(c2nc(-c3ccccc3)cs2)CCOCC1)c1ccc(N2CCOCC2)cc1`, the 50% inhibitory concentration (IC50) in series [1] was over 1 µM. For the same molecule, in [2], the solubility kinetic came out at 138 µM (≈ 64 µg/mL). In [3], the MIC is over 125 µM. For the same molecule, the CC50 in series [4] is over 100 µM.
Consider `COc1ccccc1-c1csc(C2(CNC(=O)c3ccc(Cn4nc(C)cc4C)cc3)CCOCC2)n1`, for which the IC50 in series [1] was found to be 0.036 µM. In addition, the selectivity ratio in [9] is 10. Further, the solubility kinetic in [2] stood at 78 µM (≈ 40.3 µg/mL). The molecule further had a minimal inhibitory concentration (MIC) in series [3] of 5 µM (≈ 2.58 µg/mL). For the same molecule, the CC50 in series [4] stood at 50.1 µM.
For the molecule `COc1cccc(-c2csc(C3(CNC(=O)c4ccc(Cn5nc(C)cc5C)cc4)CCOCC3)n2)c1`, in series [1], the half-maximal inhibitory concentration (IC50) was determined as 0.323 µM. In addition, in [2], the solubility kinetic amounted to 72 µM (≈ 37.2 µg/mL). The same molecule gave a minimal inhibitory concentration (MIC) in series [3] of 20 µM (≈ 10.3 µg/mL). In addition, the CC50 in series [4] came out at 50.1 µM.
On to `Cc1cc(C)n(Cc2ccc(C(=O)NCC3(c4ccccn4)CCOCC3)cc2)n1`, for which the IC50 in series [1] is over 10 µM. The solubility kinetic in [2] is at least 445 µM. This molecule also registered an MIC in series [3] of over 125 µM. In series [4], the CC50 is over 100 µM.
`Cc1cc(C)n(Cc2ccc(C(=O)NCC3(c4ccc(-c5ccccc5)cc4)CCOCC3)cc2)n1`: the IC50 in series [1] stood at 0.029 µM. Also, the selectivity ratio in [9] worked out at 5. The solubility kinetic in series [2] worked out at 77 µM (≈ 36.9 µg/mL). Also, in series [3], it took 16 µM (≈ 7.67 µg/mL) to inhibit growth (MIC). Further, in series [4], the CC50 was found to be 79.4 µM.
Regarding `NNC(=O)c1ccncc1` [ISONIAZID], in [8], the minimum inhibitory concentration (MIC) is 0.5 µg/mL.

Usually IC50 stands for the concentration needed to halve the response being measured. As usually defined, the MIC is the smallest concentration in the dilution series that meets the test's criterion for growth inhibition. As usually defined, the IC90 is the concentration at which the effect reaches the 90% level.
